Experimental data published in patent US9969775B2, “CGRP antagonist peptides” (Ferring B.V., priority 2015, dated 2018).
Numbered stars: 1 amine (or outer) side, 2 acyl side, 3 side chain; on linkers, the order of the positions; unused ones are H or OH. Bridge positions count the residues as written; N and C are the ends. Square brackets hold non-standard residues; d marks the D form. Peptide text beside a SMILES is read from it. * marks the point of attachment. Phe(3-CH2NH2) = O=C([C@H](Cc1cccc(CN[*:3])c1)N[*:1])[*:2]; Phe(4-NHCONH2) = NC(=O)Nc1ccc(C[C@H](N)C(=O)O)cc1; Phe(2-CONH2) = NC(=O)c1ccccc1C[C@H](N)C(=O)O; X5 = O=C([C@H](Cc1ccc(CO)cc1)N[*:1])[*:2]; Triazol3yl(1,2,4-5-NH2) = Nc1nc(*)n[nH]1; Phe(4-NH2) = Nc1ccc(C[C@H](N)C(=O)O)cc1; Picolinoyl(3,5-F2) = O=C(c1ncc(F)cc1F)*; X3 = NCc1ccccc1C[C@H](N[*:1])C(=O)[*:2]; Picolinoyl(5-F) = O=C(c1ccc(F)cn1)*; Orn(iPr) = CC(C)NCCC[C@H](N)C(=O)O; Oxazole2carbonyl = O=C(c1ncco1)*; 3Pal = N[C@@H](Cc1cccnc1)C(=O)O; X4 = O=C(c1ncccc1[N+](=O)[O-])*; Picolinoyl = O=C(c1ccccn1)*; ΔPro = O=C(O)[C@@H]1C=CCN1; Orn = NCCC[C@H](N)C(=O)O; X2 = Cc1n[nH]c(C(=O)*)n1; X11 = O=C(c1ncccc1Cl)*

Assays:
[1] = molecular target: T1, hCGRP receptor (CALCRL:RAMP1) (Homo sapiens, UniProt O60894+Q16602); test: CGRP receptor antagonist activity measured by cAMP assay (HTRF); format: cell-based; details: agonist human α-CGRP; for Emax: % MPE: percent of the maximal possible effect, read-out: hCGRP-R Efficacy Antag (%) Ave; for IC50: GeneBLAzer CALCRL:RAMP1-CRE-bla Freestyle 293F cells, 30 minutes, read-out: hCGRP-R IC50 Ave
T1 construct: host or cells: GeneBLAzer CALCRL:RAMP1-CRE-bla Freestyle 293F

[2] = molecular target: T2, hAM2 receptor (CALCRL:RAMP3) (Homo sapiens, UniProt O60896+Q16602); test: AM2 receptor antagonist activity measured by cAMP assay (HTRF); format: cell-based; details: for Emax: % MPE: percent of the maximal possible effect, read-out: hAM2-R Efficacy Antag (%) Ave; for Emax / IC50: agonist human adrenomedullin; for IC50: GeneBLAzer CALCRL:RAMP3-CRE-bla Freestyle 293F cells, read-out: hAM2-R IC50 Ave; for selectivity ratio CGRP/AM2: selectivity ratio for hCGRP over hAM2, calculated from the IC50 values
T2 construct: expressed in transfected cells; host or cells: GeneBLAzer CALCRL:RAMP3-CRE-bla Freestyle 293F
T2 sequence (Q16602 23-461): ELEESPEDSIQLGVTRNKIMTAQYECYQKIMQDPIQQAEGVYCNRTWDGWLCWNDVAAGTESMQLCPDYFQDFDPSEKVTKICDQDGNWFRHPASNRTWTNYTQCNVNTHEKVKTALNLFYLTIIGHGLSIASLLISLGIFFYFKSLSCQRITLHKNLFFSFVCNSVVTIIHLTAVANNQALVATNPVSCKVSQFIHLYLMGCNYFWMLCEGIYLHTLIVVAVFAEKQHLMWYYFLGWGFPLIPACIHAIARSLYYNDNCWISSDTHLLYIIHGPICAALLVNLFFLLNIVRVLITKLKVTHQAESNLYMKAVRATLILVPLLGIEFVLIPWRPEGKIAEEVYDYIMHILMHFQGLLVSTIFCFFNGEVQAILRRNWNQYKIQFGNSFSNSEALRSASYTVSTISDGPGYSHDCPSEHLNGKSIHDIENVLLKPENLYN
T2 sequence (O60896 24-148): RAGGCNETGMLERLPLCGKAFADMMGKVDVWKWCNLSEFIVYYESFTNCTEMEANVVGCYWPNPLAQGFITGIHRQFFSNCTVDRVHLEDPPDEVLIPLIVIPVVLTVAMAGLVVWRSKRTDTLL
Description: Antagonist activity for the adrenomedullin receptor AM2 was determined using the method described in Example 6 above, with the following modifications. Instead of GeneBLAzer® CALCRL:RAMP1-CRE-bla Freestyle™ 293F cells, GeneBLAzer® CALCRL:RAMP3-CRE-bla Freestyle™ 293F cells were used to test activity at hAM2 receptors. The agonist was human adrenomedullin, instead of α-CGRP.
In Table 5, the selectivity ratio for hCGRP over hAM2 is calculated as hCGRP-R IC50/hAM2-R IC50.

T1 sequence (Q16602 23-461): as the sequence (Q16602 23-461) above
T1 sequence (O60894 27-148): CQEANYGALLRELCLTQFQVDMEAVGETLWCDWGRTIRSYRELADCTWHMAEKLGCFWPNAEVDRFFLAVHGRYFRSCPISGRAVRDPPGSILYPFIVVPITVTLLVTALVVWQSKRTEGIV

Row | Structure (SMILES) | Emax [1] [%] | IC50 [1] [nM] | Emax [2] [%] | IC50 [2] [nM] | selectivity ratio CGRP/AM2 [2]
1 | CC(C)[C@@H]1NC(=O)[C@H](CC(=O)O)NC(=O)[C@H](CCCNC(=N)N)NC(=O)[C@@H](NC(=O)[C@H](Cc2ccc(O)cc2)NC(=O)[C@H](NC(=O)c2ncccc2Cl)C(C)C)CSSC[C@@H](C(=O)N[C@@H](Cc2cccnc2)C(N)=O)NC(=O)[C@H](Cc2ccccc2)NC(=O)[C@@H]2CCCN2C(=O)CNC1=O [Compound 51] (X11-[dV]YCRDVGPFC[3Pal]-NH2; disulfide 3-10) | 100 | 0.14 | 100 | 13 | 92
2 | CC(C)NCCC[C@@H]1NC(=O)[C@@H](NC(=O)[C@H](Cc2ccccc2C(N)=O)NC(=O)[C@H](NC(=O)c2ccccn2)C(C)C)CSSC[C@@H](C(=O)N[C@@H](Cc2cccnc2)C(N)=O)NC(=O)[C@H](Cc2cccc(CN)c2)NC(=O)[C@@H]2C=CCN2C(=O)CNC(=O)[C@H](C(C)C)NC(=O)[C@H](CC(=O)O)NC1=O [Compound 54, Picolinoyl-D-Val-Phe(2-Cbm)-c(Cys-Orn(iPr)-Asp-Val-Gly-Dhp-Phe(3-CH2NH2)-Cys)-3Pal-NH2] (Picolinoyl-[dV][Phe(2-CONH2)]C[Orn(iPr)]DVG[ΔPro][Phe(3-CH2NH2)]C[3Pal]-NH2; disulfide 3-10) | 100 | 0.17 | 99 | 150 | 898
3 | CC(C)NCCC[C@@H]1NC(=O)[C@@H](NC(=O)[C@H](Cc2ccc(O)cc2)NC(=O)[C@H](NC(=O)c2ccccn2)C(C)C)CSSC[C@@H](C(=O)N[C@@H](Cc2cccnc2)C(N)=O)NC(=O)[C@H](Cc2ccc(CO)cc2)NC(=O)[C@@H]2CCCN2C(=O)CNC(=O)[C@H](C(C)C)NC(=O)[C@H](CC(=O)O)NC1=O [Compound 55, Picolinoyl-D-Val-Tyr-c(Cys-Orn(iPr)-Asp-Val-Gly-Pro-Phe(4-CH2OH)-Cys)-3Pal-NH2] (Picolinoyl-[dV]YC[Orn(iPr)]DVGP[X5]C[3Pal]-NH2; disulfide 3-10) | 100 | 0.18 | 100 | 137 | 746
4 | CC(C)[C@@H]1NC(=O)[C@H](CC(=O)O)NC(=O)[C@H](CCCN)NC(=O)[C@@H](NC(=O)[C@H](Cc2ccc(O)cc2)NC(=O)[C@H](NC(=O)c2ccc(F)cn2)C(C)C)CSSC[C@@H](C(=O)N[C@@H](Cc2cccnc2)C(N)=O)NC(=O)[C@H](Cc2ccc(CO)cc2)NC(=O)[C@@H]2CCCN2C(=O)CNC1=O [Compound 56, Picolinoyl(5-F)-D-Val-Tyr-c(Cys-Orn-Asp-Val-Gly-Pro-Phe(4-CH2OH)-Cys)-3Pal-NH2] ({Picolinoyl(5-F)}-[dV]YC[Orn]DVGP[X5]C[3Pal]-NH2; disulfide 3-10) | 100 | 0.17 | 100 | 55 | 328
5 | CC(C)NCCC[C@@H]1NC(=O)[C@@H](NC(=O)[C@H](Cc2ccccc2C(N)=O)NC(=O)[C@H](NC(=O)c2ncco2)C(C)C)CSSC[C@@H](C(=O)N[C@@H](Cc2cccnc2)C(N)=O)NC(=O)[C@H](Cc2ccc(O)cc2)NC(=O)[C@@H]2C=CCN2C(=O)CNC(=O)[C@H](C(C)C)NC(=O)[C@H](CC(=O)O)NC1=O [Compound 57, Oxazole-2-carbonyl-D-Val-Phe(2-Cbm)-c(Cys-Orn(iPr)-Asp-Val-Gly-Dhp-Tyr-Cys)-3Pal-NH2] (Oxazole2carbonyl-[dV][Phe(2-CONH2)]C[Orn(iPr)]DVG[ΔPro]YC[3Pal]-NH2; disulfide 3-10) | 100 | 0.12 | 99 | 624 | 5225
6 | CC(C)NCCC[C@@H]1NC(=O)[C@@H](NC(=O)[C@H](Cc2ccc(O)cc2)NC(=O)[C@H](NC(=O)c2ncc(F)cc2F)C(C)C)CSSC[C@@H](C(=O)N[C@@H](Cc2cccnc2)C(N)=O)NC(=O)[C@H](Cc2ccccc2)NC(=O)[C@@H]2CCCN2C(=O)CNC(=O)[C@H](C(C)C)NC(=O)[C@H](CC(=O)O)NC1=O [Compound 62, Picolinoyl(3,5-F2)-D-Val-Tyr-c(Cys-Orn(iPr)-Asp-Val-Gly-Pro-Phe-Cys)-3Pal-NH2] ({Picolinoyl(3,5-F2)}-[dV]YC[Orn(iPr)]DVGPFC[3Pal]-NH2; disulfide 3-10) | 100 | 0.14 | 100 | 85 | 592

Further lines, results first:

Row | Emax [1] [%] | IC50 [1] [nM] | Emax [2] [%] | IC50 [2] [nM] | selectivity ratio CGRP/AM2 [2] | Structure (SMILES)
7 | 100 | 0.18 | 99 | 8.1 | 46 | CC(C)[C@@H]1NC(=O)[C@H](CC(=O)O)NC(=O)[C@H](CCCNC(=N)N)NC(=O)[C@@H](NC(=O)[C@H](Cc2ccc(O)cc2)NC(=O)[C@H](NC(=O)c2ncccc2[N+](=O)[O-])C(C)C)CSSC[C@@H](C(=O)N[C@@H](Cc2cccnc2)C(N)=O)NC(=O)[C@H](Cc2ccccc2)NC(=O)[C@@H]2CCCN2C(=O)CNC1=O [Compound 50] (X4-[dV]YCRDVGPFC[3Pal]-NH2; disulfide 3-10)
8 | 100 |  | 97 |  |  | CC(C)[C@@H]1NC(=O)[C@H](CC(=O)O)NC(=O)[C@H](CCCNc2nc(N)n[nH]2)NC(=O)[C@@H](NC(=O)[C@H](Cc2ccccc2C(N)=O)NC(=O)[C@H](NC(=O)c2ncco2)C(C)C)CSSC[C@@H](C(=O)N[C@@H](Cc2cccnc2)C(N)=O)NC(=O)[C@H](Cc2cccnc2)NC(=O)[C@@H]2CCCN2C(=O)CNC1=O [Compound 52, Oxazole-2-carbonyl-D-Val-Phe(2-Cbm)-c(Cys-Orn(Atz)-Asp-Val-Gly-Pro-3Pal-Cys)-3Pal-NH2] (Oxazole2carbonyl-[dV][Phe(2-CONH2)]C[Orn](Triazol3yl(1,2,4-5-NH2))DVGP[3Pal]C[3Pal]-NH2; disulfide 3-10)
9 | 100 | 0.11 | 98 | 901 | 8130 | Cc1n[nH]c(C(=O)N[C@@H](C(=O)N[C@@H](Cc2ccc(O)cc2)C(=O)N[C@H]2CSSC[C@@H](C(=O)N[C@@H](Cc3cccnc3)C(N)=O)NC(=O)[C@H](Cc3ccccc3CN)NC(=O)[C@@H]3CCCN3C(=O)CNC(=O)[C@H](C(C)C)NC(=O)[C@H](CC(=O)O)NC(=O)[C@H](CCCNC(=N)N)NC2=O)C(C)C)n1 [Compound 53, 1H-1,2,4-triazole-5-carbonyl(3-Me)-D-Val-Tyr-c(Cys-Arg-Asp-Val-Gly-Pro-Phe(2-CH2NH2)-Cys)-3Pal-NH2] (X2-[dV]YCRDVGP[X3]C[3Pal]-NH2; disulfide 3-10)
10 | 100 | 0.18 | 99 | 476 | 2588 | CC(C)NCCC[C@@H]1NC(=O)[C@@H](NC(=O)[C@H](Cc2ccccc2C(N)=O)NC(=O)[C@H](NC(=O)c2ncco2)C(C)C)CSSC[C@@H](C(=O)N[C@@H](Cc2cccnc2)C(N)=O)NC(=O)[C@H](Cc2cccnc2)NC(=O)[C@@H]2C=CCN2C(=O)CNC(=O)[C@H](C(C)C)NC(=O)[C@H](CC(=O)O)NC1=O [Compound 58, Oxazole-2-carbonyl-D-Val-Phe(2-Cbm)-c(Cys-Orn(iPr)-Asp-Val-Gly-Dhp-3Pal-Cys)-3Pal-NH2] (Oxazole2carbonyl-[dV][Phe(2-CONH2)]C[Orn(iPr)]DVG[ΔPro][3Pal]C[3Pal]-NH2; disulfide 3-10)
11 | 100 | 0.17 | 99 | 467 | 2770 | CC(C)NCCC[C@@H]1NC(=O)[C@@H](NC(=O)[C@H](Cc2ccccc2C(N)=O)NC(=O)[C@H](NC(=O)c2ncco2)C(C)C)CSSC[C@@H](C(=O)N[C@@H](Cc2cccnc2)C(N)=O)NC(=O)[C@H](Cc2ccc(N)cc2)NC(=O)[C@@H]2C=CCN2C(=O)CNC(=O)[C@H](C(C)C)NC(=O)[C@H](CC(=O)O)NC1=O [Compound 59, Oxazole-2-carbonyl-D-Val-Phe(2-Cbm)-c(Cys-Orn(iPr)-Asp-Val-Gly-Dhp-4Aph-Cys)-3Pal-NH2] (Oxazole2carbonyl-[dV][Phe(2-CONH2)]C[Orn(iPr)]DVG[ΔPro][Phe(4-NH2)]C[3Pal]-NH2; disulfide 3-10)
12 | 100 | 0.12 | 100 | 444 | 3759 | CC(C)NCCC[C@@H]1NC(=O)[C@@H](NC(=O)[C@H](Cc2ccccc2C(N)=O)NC(=O)[C@H](NC(=O)c2ncco2)C(C)C)CSSC[C@@H](C(=O)N[C@@H](Cc2cccnc2)C(N)=O)NC(=O)[C@H](Cc2ccc(NC(N)=O)cc2)NC(=O)[C@@H]2C=CCN2C(=O)CNC(=O)[C@H](C(C)C)NC(=O)[C@H](CC(=O)O)NC1=O [Compound 60, Oxazole-2-carbonyl-D-Val-Phe(2-Cbm)-c(Cys-Orn(iPr)-Asp-Val-Gly-Dhp-4Uph-Cys)-3Pal-NH2] (Oxazole2carbonyl-[dV][Phe(2-CONH2)]C[Orn(iPr)]DVG[ΔPro][Phe(4-NHCONH2)]C[3Pal]-NH2; disulfide 3-10)
13 | 100 | 0.1 | 100 | 89 | 934 | CC(C)NCCC[C@@H]1NC(=O)[C@@H](NC(=O)[C@H](Cc2ccc(O)cc2)NC(=O)[C@H](NC(=O)c2ccc(F)cn2)C(C)C)CSSC[C@@H](C(=O)N[C@@H](Cc2cccnc2)C(N)=O)NC(=O)[C@H](Cc2ccc(CO)cc2)NC(=O)[C@@H]2CCCN2C(=O)CNC(=O)[C@H](C(C)C)NC(=O)[C@H](CC(=O)O)NC1=O [Compound 61, Picolinoyl(5-F)-D-Val-Tyr-c(Cys-Orn(iPr)-Asp-Val-Gly-Pro-Phe(4-CH2OH)-Cys)-3Pal-NH2] ({Picolinoyl(5-F)}-[dV]YC[Orn(iPr)]DVGP[X5]C[3Pal]-NH2; disulfide 3-10)
